Laboratory results from PubChem BioAssay AID330 (DTP/NCI, 2004).
Inconclusive results and toxic doses are left out. The calls were made as follows: active = survival T/C of 150% or more; inactive = T/C below 125% in these data.

Test system: P388 leukemia ip, CD2F1 mice, survival T/C
Test: NCI In Vivo Anticancer Drug Screen. Data for tumor model P388 Leukemia (intraperitoneal) in CD2F1 (CDF1) mice
Conditions: endpoint: median survival time, higher = longer survival
Method in brief: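 Mice carrying the transplanted tumor received test compound or vehicle. Survival was recorded in each group, and the value is the treated-group measurement divided by that of the vehicle-treated control group.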

[1] = dose: 50.0 mg/kg/injection, schedule: Q01DX005 (ip), vehicle: Klucel (hydroxypropylcellulose) (HPC)
[2] = dose: 100.0 mg/kg/injection, schedule: Q01DX005 (ip), vehicle: Klucel (hydroxypropylcellulose) (HPC)
[3] = dose: 200.0 mg/kg/injection, schedule: Q01DX005 (ip), vehicle: Klucel (hydroxypropylcellulose) (HPC)
[4] = dose: 50.0 mg/kg/injection, schedule: Q01DX009 (ip), vehicle: saline with Tween-80
[5] = dose: 60.0 mg/kg/injection, schedule: Q01DX005 (ip), vehicle: saline with Tween-80
[6] = dose: 120.0 mg/kg/injection, schedule: Q01DX005 (ip), vehicle: saline with Tween-80
[7] = dose: 240.0 mg/kg/injection, schedule: Q01DX005 (ip), vehicle: saline with Tween-80
[8] = dose: 50.0 mg/kg/injection, schedule: Q01DX009 (ip), vehicle: Klucel (hydroxypropylcellulose) (HPC)
[9] = dose: 100.0 mg/kg/injection, schedule: Q01DX009 (ip), vehicle: Klucel (hydroxypropylcellulose) (HPC)
[10] = dose: 200.0 mg/kg/injection, schedule: Q01DX009 (ip), vehicle: Klucel (hydroxypropylcellulose) (HPC)

Measured: T/C

O=C(c1ccccc1)C(O)(CC(c1ccccc1)[P+](c1ccccc1)(c1ccccc1)c1ccccc1)c1ccccc1 (centres undefined)
inactive: dose: 1.32 mg/kg/injection, schedule: Q01DX009 (ip), vehicle: saline with Tween-80 90 % of control | dose: 2.0 mg/kg/injection, schedule: Q01DX009 (ip), vehicle: saline with Tween-80 104 % of control | dose: 3.0 mg/kg/injection, schedule: Q01DX009 (ip), vehicle: saline with Tween-80 113 % of control | dose: 4.5 mg/kg/injection, schedule: Q01DX009 (ip), vehicle: saline with Tween-80 118 % of control

CN(O)/C=C1\C(=O)C=Cc2ccccc21
inactive: [1] 90 % of control | [2] 94 % of control | [3] 90 % of control

Cn1c2c(c3ccccc3c1=O)C(=O)c1cccnc1-2
inactive: dose: 50.0 mg/kg/injection, schedule: Q01DX005 (ip), vehicle: saline 102 % of control | dose: 100.0 mg/kg/injection, schedule: Q01DX005 (ip), vehicle: saline 97 % of control | dose: 200.0 mg/kg/injection, schedule: Q01DX005 (ip), vehicle: saline 105 % of control

NC(=S)c1cccc(/C=N/n2cnnc2)c1
inactive: dose: 100.0 mg/kg/injection, schedule: Q04DX003 (ip), vehicle: Klucel (hydroxypropylcellulose) (HPC) 97 % of control | dose: 200.0 mg/kg/injection, schedule: Q04DX003 (ip), vehicle: Klucel (hydroxypropylcellulose) (HPC) 93 % of control | dose: 400.0 mg/kg/injection, schedule: Q04DX003 (ip), vehicle: Klucel (hydroxypropylcellulose) (HPC) 90 % of control

COc1cc[n+](CCc2c[nH]c3ccccc23)cc1
inactive: dose: 12.5 mg/kg/injection, schedule: Q01DX009 (ip), vehicle: saline with Tween-80 109 % of control | dose: 25.0 mg/kg/injection, schedule: Q01DX009 (ip), vehicle: saline with Tween-80 104 % of control | [4] 113 % of control

CC1=NS(=O)(=O)NC(C)=C1CC1=C(C)NS(=O)(=O)N=C1C
inactive: [5] 99 % of control | [6] 107 % of control | [7] 106 % of control

C[Si](C)(C)CN=P(c1ccccc1)(c1ccccc1)c1ccccc1
inactive: [5] 102 % of control | [6] 103 % of control | [7] 105 % of control

O=C([O-])[O-].O=S(=O)(O)O.[Co+3].[NH-]CC[NH-].[NH-]CC[NH-]
inactive: dose: 50.0 mg/kg/injection, schedule: Q01DX009 (ip), vehicle: saline 90 % of control | dose: 100.0 mg/kg/injection, schedule: Q01DX009 (ip), vehicle: saline 93 % of control | dose: 200.0 mg/kg/injection, schedule: Q01DX009 (ip), vehicle: saline 94 % of control

CCN(CC)C(=S)Oc1cc2oc(=O)cc(C)c2cc1Cl
inactive: [4] 98 % of control | dose: 100.0 mg/kg/injection, schedule: Q01DX009 (ip), vehicle: saline with Tween-80 100 % of control | dose: 200.0 mg/kg/injection, schedule: Q01DX009 (ip), vehicle: saline with Tween-80 100 % of control

COc1ccccc1-n1c(C)nc2c(cnn2C)c1=O
inactive: [1] 100 % of control | [2] 100 % of control | [3] 103 % of control

CC(C)(C)C(=O)NNc1cccc(Cl)n1
inactive: dose: 50.0 mg/kg/injection, schedule: Q01DX001 (ip), vehicle: Klucel (hydroxypropylcellulose) (HPC) 109 % of control | dose: 100.0 mg/kg/injection, schedule: Q01DX001 (ip), vehicle: Klucel (hydroxypropylcellulose) (HPC) 98 % of control | dose: 200.0 mg/kg/injection, schedule: Q01DX001 (ip), vehicle: Klucel (hydroxypropylcellulose) (HPC) 100 % of control

CN1C(=O)C(=O)N(CCCN2CCN(CCCN3C(=O)C(=O)N(C)C3=O)CC2)C1=O
inactive: [8] 104 % of control | [9] 106 % of control | [10] 98 % of control

CCOC(=O)N1CCN(C(=O)c2nc3ccccc3[nH]2)CC1
inactive: [1] 99 % of control | [2] 101 % of control | [3] 95 % of control

CN=C(N)N/N=C(\c1ccc(F)cc1)c1ccccc1Cl
inactive: dose: 25.0 mg/kg/injection, schedule: Q04DX002 (ip), vehicle: saline with Tween-80 101 % of control | dose: 50.0 mg/kg/injection, schedule: Q04DX002 (ip), vehicle: saline with Tween-80 100 % of control | dose: 100.0 mg/kg/injection, schedule: Q04DX002 (ip), vehicle: saline with Tween-80 98 % of control

N#[N+]c1ccc2c(S(=O)(=O)Nc3ccc(-c4ccc(NS(=O)(=O)c5cccc6c([O-])c([N+]#N)ccc56)cc4)cc3)cccc2c1[O-]
inactive: [8] 102 % of control | [9] 99 % of control | [10] 98 % of control

Cc1cc(C)c(C#N)c(SC(C(=O)NC(C)(C)C)c2ccccc2)n1 (centres undefined)
inactive: [1] 88 % of control | [2] 87 % of control | [3] 87 % of control
